# From patent US12310944B2 (priority 2019, dated 2025)
# Where two headings read alike, the source gives them in different places.
# Legend:
# [1] = molecular target: T1, eqBuChE (BuChE, E.C.3.1.1.8, selected from horse serum) (Equus caballus, UniProt P81908); experiment: Cholinesterase inhibitory activity (DTNB/BTC), eqBuChE; assay type: biochemical
# T1 construct: BuChE (E.C.3.1.1.8, selected from horse serum); purchased Sigma; host or cells: horse serum
# Source text: Determination of Cholinesterase Inhibitory Activity:
# Drugs and reagents: Test compounds, AChE (E.C.3.1.1.7, Type VI-S, selected from electric eel), BuChE (E.C.3.1.1.8, selected from horse serum), 5,5′-dithiobis(2-nitrobenzoic acid) (DTNB), acetylthiocholine (ATC) iodide and butyrylthiocholine (BTC) iodide were all purchased from Sigma; the positive control tacrine hydrochloride (9-amino-1,2,3,4-tetrahydroacridine hydrochloride hydrate) was purchased from BioTrend.
# (§1) Instrument: THERMO Varioskan Flash full-wavelength multifunctional microplate reader.
# (1) Formulation of buffer: 13.6 g of potassium dihydrogen phosphate was dissolved in 1 L of water, and pH was adjusted with potassium hydroxide to reach pH=8±0.1. The solution was stored at 4° C. for later use.
# (2) Formulation of 0.01 M DTNB solution: 0.396 g of DTNB and 0.15 g of sodium bicarbonate were dissolved in 100 mL of water to prepare a 0.01 M DTNB solution, which was stored at −30° C. for later use.
# (3) Formulation of 0.075 M ATC and BTC solutions: 0.217 g of ATC was dissolved in 10 mL of water to prepare a 0.075 M ATC solution, which was stored at −30° C. for later use; 0.237 g of BTC was dissolved in 10 mL of water to prepare a 0.075 M BTC solution, which was stored at −30° C. for later use.
# (4) Formulation of AChE and BuChE solutions: 5,000 units of AChE were dissolved in 1 mL of 1% gel solution, and then diluted to 100 mL with water to prepare a AChE solution with a concentration of 5 units/mL, which was stored at −30° C. for later use; 5,000 units of BuChE were dissolved in 1 mL of 1% gel solution, and then diluted to 100 mL with water to prepare a BuChE solution with a concentration of 5 units/mL, which was stored at −30° C. for later use.
# (5) Formulation of test substance solution: The test compound was dissolved in ethanol to obtain a solution with a concentration of 10^−3 M (ethanol would not affect the test results), and then diluted with water to prepare solutions with concentrations of […], 10^−5, 10^−6, 10^−7, 10^−8, 10^−9, and 10^−10 M, respectively.
# Before the start of the experiment, all the solutions as used were warmed to room temperature, and the AChE and BuChE solutions were diluted 1-fold with water to prepare an enzyme solution with a concentration of 2.5 units/mL. The background UV absorbance was measured with a blank buffer (3 mL) as a subtraction value. Firstly, 100 μL of test compound solution, 100 μL of DTNB solution, and 100 μL of enzyme solution were added to 3 mL of buffer. After adding 20 μL of ATC or BTC solution to trigger the reaction, the time was recorded immediately and the test solution was mixted quickly and uniformly at the same time. After 2 minutes, the UV absorbance was measured at a wavelength of […]. The blank control group was measured with an equal volume of water instead of the test substance solution. All tests were performed three times in parallel. The UV absorption value of the blank control group was taken as 100%, the absorbance (OD value) of the test compound at each concentration was recorded, and GraphPad Prism™ (GraphPad Software, San Diego, CA, USA) software was used to analyze the results in a non-linear regression analysis model to calculate the corresponding IC50 values, as shown in Table 1.
# [2] = molecular target: hBuChE (Homo sapiens, UniProt P06276); experiment: Cholinesterase inhibitory activity (DTNB/BTC), hBuChE; assay type: biochemical; settings: mean ± SEM
# [3] = system: PC-12 neural cell line; experiment: Toxicity test in PC-12 nerve cell (MTT); assay type: cell-based; settings: PC-12 cells; for SR(%) cell survival rate, 20 μM: 20 μM compound for 24 h; for SR(%) cell survival rate, 50 μM: 50 μM compound for 24 h
# Description: Toxicity Test in PC-12 Nerve Cell:
# Drugs and reagents: Test compounds, DMEM medium (01-050-1A) purchased from Biological Industries, FBS fetal bovine serum (04-001-1A) purchased from Biological Industries, MTT thiazolyl blue reagent (KGT525500) purchased from KeyGEN BioTECH.
# as §1
# About 3×10^3 PC-12 cells were evenly mixed in 0.1 mL of DMEM medium containing 10% FBS, and plated on a 96-well bottom plate, and incubated overnight at 37° C. in an environment containing 5% CO2. The 20 μM and 50 μM compounds diluted in 0.1 mL of DMEM medium were treated on the cells for 24 hours. Then MTT reagent was added to the well plate, and the plate was incubated at 37° C. for 2 to 4 hours. The color reaction was measured at 492 nm using a spectrophotometer (Thermo, multiskan FC).
# [4] = read-out: IC50 (nM) ± SEM eqBuChE
# [5] = eqBuChE, mean ± SEM, three parallel tests
# T1 sequence (P81908 whole entry): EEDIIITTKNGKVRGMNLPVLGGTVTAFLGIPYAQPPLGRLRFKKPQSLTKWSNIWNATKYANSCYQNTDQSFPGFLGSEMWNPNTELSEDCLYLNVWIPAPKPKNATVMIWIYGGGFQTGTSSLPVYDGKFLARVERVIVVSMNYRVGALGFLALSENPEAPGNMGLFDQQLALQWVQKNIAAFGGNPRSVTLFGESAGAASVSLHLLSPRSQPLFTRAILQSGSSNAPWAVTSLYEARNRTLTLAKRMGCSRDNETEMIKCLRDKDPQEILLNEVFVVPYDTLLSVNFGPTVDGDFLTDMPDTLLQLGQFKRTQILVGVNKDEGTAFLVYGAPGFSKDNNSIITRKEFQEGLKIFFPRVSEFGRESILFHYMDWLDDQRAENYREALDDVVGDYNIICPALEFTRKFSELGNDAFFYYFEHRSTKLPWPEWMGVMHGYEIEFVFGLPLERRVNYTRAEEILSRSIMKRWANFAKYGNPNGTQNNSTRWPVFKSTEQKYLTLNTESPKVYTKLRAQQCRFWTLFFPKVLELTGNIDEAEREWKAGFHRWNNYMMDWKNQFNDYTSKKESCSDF
SMILES,"IC50 [1, 4] [nM]",IC50 [2] [nM],"SR(%) cell survival rate, 20 μM [3] [%]","SR(%) cell survival rate, 50 μM [3] [%]","IC50 [1, 5] [nM]",inhibition at 10 µM ([1]; read-out: inhibition rate of the compound on the target at a concentration of 10 μM (eqBuChE)) [%]
CCN(CC)Cc1ccccc1CNC(=O)c1cccc(NC(=O)c2ccc(C(C)C)cc2)c1 [Compound 24],0.58 ± 0.67,2.08 ± 0.73,97.02,86.21,,
CCN(CC)Cc1ccccc1CNC(=O)c1cccc(NC(=O)c2ccc([N+](=O)[O-])cc2)c1 [Compound 32],22.6 ± 0.98,30.9 ± 3.26,97.42,84.65,,
"CCN(CC)Cc1ccccc1CNC(=O)c1cccc(NC(=O)c2ccccc2)c1 [Compound 11, 3-benzamido-N-(2-((diethylamino)methyl)benzyl)benzamide]",0.48 ± 0.07,0.99 ± 0.18,96.30,83.4,,
"CCN(CC)Cc1ccccc1CNC(=O)c1cccc(NC(=O)c2ccc(I)cc2)c1 [Compound 21, 3-(4-iodobenzamido)-N-(2-((diethylamino)methyl)benzyl)benzamide]",1.59 ± 0.26,3.33 ± 1.62,94.40,89.63,,
CCN(CC)Cc1ccccc1CNC(=O)c1cccc(NC(=O)c2cccc(OC)c2)c1 [Compound 27],4.91 ± 1.35,12.8 ± 6.01,91.23,83.60,,
CCN(CC)Cc1ccccc1CNC(=O)c1cccc(NC(=O)c2ccc(F)c(F)c2)c1 [Compound 16],0.3 ± 0.07,0.57 ± 0.1,95.72,89.53,,
CCN(CC)Cc1ccccc1CNC(=O)c1cccc(NC(=O)c2ccc(C(F)(F)F)cc2)c1 [Compound 25],0.38 ± 0.1,1.41 ± 0.01,97.58,91.57,,
CCN(CC)Cc1ccccc1CNC(=O)c1cccc(NC(=O)c2ccc(C(C)=O)cc2)c1 [Compound 30],,24 ± 1.52,91.86,72.56,6.63 ± 0.66,
"CN(C)Cc1ccccc1CNC(=O)c1cccc(NC(=O)c2cccs2)c1 [Compound 34, N-(3-((2-((dimethylamino)methyl)benzyl)carbamoyl)phenyl)thiophene-2-carboxamide]",,0.75 ± 0.27,96.10,94.5,0.29 ± 0.05,
"CCN(CC)Cc1ccccc1CNC(=O)c1cccc(NC(=O)c2ccc(C(=O)O)cc2)c1 [Compound 13, 4-((3-((2-((diethylamino)methyl)benzyl)carbamoyl)phenyl)carbamoyl)benzoic acid]",0.76 ± 0.09,3.4 ± 0.31,91.46,75.25,,
"CCN(CC)Cc1ccccc1CNC(=O)c1cccc(NC(=O)c2nccs2)c1 [Compound 8, N-(3-((2-((diethylamino)methyl)benzyl)carbamoyl)phenyl)-thiazole-2-carboxamide]",0.75 ± 0.14,1.88 ± 0.52,93.57,89.42,,
"CN(C)Cc1ccccc1NC(=O)c1cccc(NC(=O)c2cccs2)c1 [Compound 2, N-(3-((2-((dimethylamino)methyl)phenyl)carbamoyl)phenyl)thiophene-2-carboxamide]",,,94.30,91.45,1910 ± 983,
"CCN(CC)Cc1ccccc1CNC(=O)c1cccc(NC(=O)c2ccc(F)cc2)c1 [Compound 15, N-(2-((diethylamino)methyl)benzyl)-3-(4-fluorobenzamido)benzamide]",,1.44 ± 1.66,93.57,84.35,0.15 ± 0.06,
"CCN(CC)Cc1ccccc1CNC(=O)c1cccc(NC(=O)c2ccc(C)c(C)c2)c1 [Compound 23, N-(3-((2-((diethylamino)methyl)benzyl)carbamoyl)phenyl)-3,4-dimethylbenzamide]",0.8 ± 0.24,1.53 ± 0.55,85.05,80.72,,
"CCN(CC)Cc1ccccc1CNC(=O)c1cccc(NC(=O)c2ccco2)c1 [Compound 6, N-(3-((2-((diethylamino)methyl)benzyl)carbamoyl)phenyl)furan-2-carboxamide]",,0.63 ± 0.13,95.37,81.46,0.79 ± 0.09,
"CCN(CC)Cc1ccccc1CNC(=O)c1cccc(NC(=O)c2ccc(C=O)cc2)c1 [Compound 14, N-(2-((diethylamino)methyl)benzyl)-3-(4-formanilide)benzamide]",0.89 ± 0.63,2.09 ± 0.99,86.34,81.34,,
"CCN(CC)Cc1ccccc1CNC(=O)c1cccc(NC(=O)c2ccc(C)cc2)c1 [Compound 22, N-(2-((diethylamino)methyl)benzyl)-3-(4-methylbenzamido)benzamide]",0.98 ± 0.21,1.54 ± 0.56,93.35,89.42,,
CCN(CC)Cc1ccccc1CNC(=O)c1cccc(NC(=O)c2ccc(N)cc2)c1 [Compound 33],1.56 ± 0.67,7.99 ± 2.53,90.21,74.62,,
"CCN(CC)Cc1ccccc1CNC(=O)c1cccc(NC(=O)c2ccc(C(=O)OC)cc2)c1 [Compound 29, methyl 4-((3-((2-((diethylamino)methyl)benzyl)carbamoyl)phenyl)carbamoyl)benzoate]",2.48 ± 0.26,9.06 ± 0.74,99.42,93.32,,
"CCCN(CCC)Cc1ccccc1NC(=O)c1cccc(NC(=O)c2cccs2)c1 [Compound 4, N-(3-((2-((dipropylamino)methyl)phenyl)carbamoyl)phenyl)thiophene-2-carboxamide]",122 ± 285,,87.24,79.48,,
"CCN(CC)Cc1ccccc1NC(=O)c1cccc(NC(=O)c2cccs2)c1 [Compound 3, N-(3-((2-((diethylamino)methyl)phenyl)carbamoyl)phenyl)thiophene-2-carboxamide]",,,95.23,89.64,481 ± 110,
O=C(NCc1ccccc1)c1cccc(NC(=O)c2cccs2)c1 [Compound 36],,,89.57,77.42,,27.2
"CCN(CC)Cc1ccccc1CNC(=O)c1cccc(NC(=O)C2CCCCC2)c1 [Compound 10, 3-(cyclohexanecarboxamido)-N-(2-((diethylamino)methyl)benzyl)benzamide]",122 ± 15.4,,90.23,83.22,,
